From publication PMC8403869 (Proceedings of the National Academy of Sciences of the …, 2021)

Tests used:
human ABCG1 (G1) = target: T1, human ABCG1 (G1) (Homo sapiens, UniProt P45844); assay: NADH-coupled ATPase stimulation; type: biochemical; conditions: 0.25 mM cholesterol, 0.5-20 mM ATP, 2 mM MgCl2, pH 7.5, 37 °C
T1 construct: full-length cDNA, N-terminal Flag tag; homodimer; WT from Sf9, E242Q from HEK-293S GnTI-; LMNG then digitonin

[1] = target: T2, human ABCG5-ABCG8 heterodimer (G5G8) (Homo sapiens, UniProt Q9H221+Q9H222); assay: […]phosphate release ATPase assay; type: biochemical; conditions: 2.5 mM gamma-[32P]ATP (labelled compound), 2.5 mM MgCl2, liver polar lipids, 1% sodium cholate, pH 7.5, 37 °C
T2 construct: heterodimer; HEK-293S GnTI- or Pichia pastoris
T2 sequence (Q9H222 1-651): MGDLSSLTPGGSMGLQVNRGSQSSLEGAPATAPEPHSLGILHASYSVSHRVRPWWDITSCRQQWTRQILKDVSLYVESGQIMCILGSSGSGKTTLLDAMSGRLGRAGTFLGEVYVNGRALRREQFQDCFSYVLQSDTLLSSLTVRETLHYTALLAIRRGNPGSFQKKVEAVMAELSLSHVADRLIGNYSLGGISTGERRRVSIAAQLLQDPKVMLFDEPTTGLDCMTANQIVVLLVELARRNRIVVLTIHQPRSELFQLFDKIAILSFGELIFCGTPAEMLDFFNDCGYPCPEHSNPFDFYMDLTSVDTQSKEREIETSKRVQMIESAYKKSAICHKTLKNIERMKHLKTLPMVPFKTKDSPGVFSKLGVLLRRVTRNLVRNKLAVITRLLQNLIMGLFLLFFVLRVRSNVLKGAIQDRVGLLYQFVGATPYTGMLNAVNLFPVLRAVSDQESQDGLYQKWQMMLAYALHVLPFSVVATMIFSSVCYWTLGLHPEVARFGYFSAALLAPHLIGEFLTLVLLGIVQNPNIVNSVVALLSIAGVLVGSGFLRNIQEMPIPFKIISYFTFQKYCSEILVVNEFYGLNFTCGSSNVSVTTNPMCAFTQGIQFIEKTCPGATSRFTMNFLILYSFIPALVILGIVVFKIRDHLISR
T2 sequence (Q9H221 1-673): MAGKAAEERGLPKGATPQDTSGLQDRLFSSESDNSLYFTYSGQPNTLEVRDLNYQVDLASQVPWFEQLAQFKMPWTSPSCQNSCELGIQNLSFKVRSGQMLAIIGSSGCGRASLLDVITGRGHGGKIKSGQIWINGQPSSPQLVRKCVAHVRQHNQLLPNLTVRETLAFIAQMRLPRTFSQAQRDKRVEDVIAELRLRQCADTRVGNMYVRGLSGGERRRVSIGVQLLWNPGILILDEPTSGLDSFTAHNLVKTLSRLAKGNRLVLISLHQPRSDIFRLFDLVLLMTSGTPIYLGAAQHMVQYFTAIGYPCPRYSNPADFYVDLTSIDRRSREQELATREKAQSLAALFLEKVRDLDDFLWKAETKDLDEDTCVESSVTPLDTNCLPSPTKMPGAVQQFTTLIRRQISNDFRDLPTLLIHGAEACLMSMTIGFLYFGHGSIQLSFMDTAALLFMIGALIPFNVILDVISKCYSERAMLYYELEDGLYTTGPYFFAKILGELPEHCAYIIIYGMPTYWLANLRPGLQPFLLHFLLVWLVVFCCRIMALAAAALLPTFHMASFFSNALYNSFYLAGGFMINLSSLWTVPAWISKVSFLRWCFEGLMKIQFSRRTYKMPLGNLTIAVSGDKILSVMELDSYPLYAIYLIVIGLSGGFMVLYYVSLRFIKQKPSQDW

Row | SMILES | ATPase stimulation (human ABCG1 (G1)) | [32P]phosphate release ATPase assay [1]
1 | CC(C)CCC[C@@H](C)[C@H]1CC[C@H]2[C@@H]3CC=C4C[C@@H](O)CC[C@]4(C)[C@H]3CC[C@]12C [cholesterol] | ATPase activity was stimulated by cholesterol but not its diastereomer, epi-cholesterol. | –
2 | Nc1ncnc2c1ncn2[C@@H]1O[C@H](COP(=O)(O)OP(=O)(O)OP(=O)(O)O)[C@@H](O)[C@H]1O [ATP] | – | The ATPase activity of purified G5G8 was determined as described
